Values of other authors, collected in patent publication US6696575B2, “Biodegradable, electrically conducting polymer for tissue engineering applications” (Board of Regents, The University of Texas System, priority 2001, dated 2004).

What was measured:
mouse = conditions: oral administration
rat = conditions: oral administration
rat sciatic nerve = conditions: in vivo

| Molecule | one-half lethal dose (LD50) (rat) [mg/kg] | further results |
| --- | --- | --- |
| OCCCO [Propanediol, 1,3-propanediol] |  | one-half lethal dose (LD50) (mouse): 5000 mg/kg |
| CCO [ethanol] | 7000 |  |
| CCCCCC(=O)O [hexanoic acid] | 3000 |  |
| polypyrrole [PP] |  | tissue response on implantation (rat sciatic nerve): provoked little adverse tissue response |
